Test results published in patent US20160067272A1, “METHODS FOR TREATING IMMUNE DISEASES” (priority 2013, published 2016).

How the values were obtained:
naïve CD4+ T cells = test: Naïve CD4+ T cell differentiation under Th2 polarizing conditions; assay type: cell-based, mouse
Description: Next, the effects of NAD^+ on activated CD4+ T cells were tested in Th2 polarizing conditions. […] In the absence of NAD^−, CD4^+ T cells cultured in Th2 cytokine environment barely produced IL-17A cytokine while in the presence of increasing concentrations of NAD^+, cultured cells produced large amounts (>2000 pg/ml) in a dose dependent manner (FIG. 2A). […] In contrast, production of the pro-inflammatory cytokine TNF-α was inhibited in the presence of NAD^− (FIG. 7D). […] Thus, these findings indicate that NAD^+ drives the switch from classical Th2/IL-10^+ toward Th2/IL-17A^+ producing cells.
Single-cell leukocyte suspensions were obtained from spleens from 8-10 week old DBA mice and CD4^− T cells were isolated by negative selection using a CD4^+ T cell isolation kit (MILTENYI BIOTEC, Bergisch Gladbach, Germany). Cells were further sorted using α-CD4-PE (EBIOSCIENCE, San Diego, Calif.) and purities of CD4^+ T cells after isolation were >98%.
All recombinant cytokines and antibodies were purchased from EBIOSCIENCE except recombinant TGF-β cytokine (R&D SYSTEMS, Minneapolis, Minn.). After 96 hrs of culture supernatants and cells were collected and analyzed by ELISA and flow cytometry, respectively.
Fluorescently labeled anti-mouse α-CD4 (GK1.5), α-CD25 (PC61), α-IFN-γ (XMG1.2) and unlabeled α-CD16/CD32 (2.4G2) antibodies were obtained from BD BIOSCIENCES (San Jose, Calif.). Fluorescently labeled anti-mouse α-IL-4 (FJK-16s), α-IL-10 (JES5-16E3), α-IL-17A (eBio17B7), and anti-TGFβ (TW7-16B4) were obtained from eBIOSCIENCE (San Diego, Calif.). Intracellular staining for IL-4, IL-10, IL-17A, IFNγ and TGFβ was performed according to manufacturers' protocols. Splenocytes were re-stimulated in complete media (RPMI media containing 10% FCS, 1% L-Glutamine, 1% Penicillin/Streptomycin; all Bio Whittaker, Walkersville, Md.) for 4 hours at 37° C. with ionomycin, phorbol 12-myristate 13-acetate and Brefelding A (EBIOSCIENCE). Cells were fixed and permeabilized using CYTOFIX/CYTOPERM solution (BD BIOSCIENCES). Flow cytometry measurements of single-cell suspensions were performed on a FACSCalibur using standard procedures and data were analyzed using FLOWJO software (TREE STAR, Ashland, Oreg.).

[1] = test system: tryptophan hydroxylase-1 (Tph-1) and carboxypeptidase A3 (CA3); test: Gene expression in CD4+ T cells (microarray, qPCR); assay type: cell-based, mouse
From the text: After successive washes, RNA was eluted.

EAE in C57BL/6 mice = test: EAE mouse model (behavioral score, splenic CD4+ T cells, spinal cord histology); assay type: in vivo
Description: Thus, the inventors used the experimental autoimmune encephalomyelitis (EAE) mouse model to study the impact of NAD^+, in vivo, on IL-10, Th1, Th17 and Treg cells in vivo. […] Next, the mechanisms by which NAD^+ protected from EAE in vivo were investigated, in particular its impact on IL-10 cytokine, Th1, Th17 and Tregs. Spleens were isolated from mice treated with NAD^+ or with a placebo solution 15 days after MOG immunization and CD4^+ T cell cytokine expression profile was analyzed by flow cytometry.
To assess the clinical efficacy of NAD^+ as a potential robust therapeutic, a group of mice that developed severe clinical symptoms of EAE (e.g., bilateral hindlimb paresis) was subjected to a daily NAD^+ treatment 15 days after MOG immunization.
Thus, the mechanism of how NAD^− treatment was able to reverse EAE progression was investigated. A previous study reported that nicotinamide (Nam) an NAD biosynthesis precursor can protect from myelin degradation and axon degeneration^43. The results described herein indicate that NAD^+ administered after the disease onset was able to reverse the progression of EAE. Thus, the inventors assessed whether NAD^+ was able to reverse the clinical symptoms of EAE by protecting axon from degeneration and whether NAD^+ had the capacity to promote myelin regeneration. […] Moreover, demyelination and axon loss were assessed with antibodies to myelin basic protein (MBP/SMI-9) and neurofilament (NF200), respectively, in all three groups (FIG. 5A-5F). Consistent with H&E and luxol blue findings, a significant reduction in both MBP staining depicting demyelination and axon loss evidenced by reduced NF 200 staining was very prominent in the group of mice treated with a placebo solution (FIG. 5A and 5D) when compared to the daily NAD^| treated group (FIG. 5B and 5E) and with mice treated with NAD+ after develop hindlimb paralysis (15 days after MOG immunization) (FIG. 5C and 5F).
EAE was induced in 10-week-old C57BL/6 mice using Hooke Labs EAE induction kit (EK-2110) according to manufacturer's instructions. […] For NAD^+ treatment mice received a daily intraperitoneal injection (60 mg in 100 μl in PBS) or a placebo solution (100 μl of PBS) at the same day than MOG immunization. Mice were sacrificed at day 18 and single cell suspension was obtained from spleens for flow cytometry analysis. To test whether NAD^+ was able to reverse the development of EAE, another group of mice was treated daily (for a period of 10 days) with NAD^+ (60 mg/mouse) or a placebo solution 15 days after MOG immunization when mice were scored 3 with a bilateral hindlimb paresis. EAE disease progression was monitored. For Tph-1 or CA3 inhibition, mice received daily intraperitoneal injections (simultaneous to NAD^−) of p-Chlorophenylalanine (1 ml of a 10 mM solution stock, catalog number 0938, Tocris Bioscience) or N-[[[(1S)-1-Carboxy-3-methylbutyl]amino]carbonyl]-L-glutamic acid (100 μl of a 100 mM solution stock, ZJ 43 catalog number 2675,Tocris Bioscience), respectively.

C57BL/6 mice = conditions: mouse, in vivo, ip
Description: C57BL/6 mice (8-10 weeks old) were daily administered 60 mg of NAD^+ or a placebo solution (PBS) intraperitoneally during 4 days. Blood and spleen were collected after 4 days of treatment. Absolute number of lymphocytes in the blood was determined using a hemocytometer (model 850 FS, Drew Scientific, Miami lakes, Fla.). To determine absolute lymphocyte number in spleens, cells were isolated and counted with a hemocytometer then stained with antibodies anti-CD4^+, CD3^+ or B220^+ and percentage was determined by flow analysis.

[2] = test system: P2RX4, P2RX7, P2RY1, P2RY2, P2RY4; test: Purinergic receptor expression in nTregs (real-time PCR, immunofluorescence); assay type: cell-based, mouse; conditions: 24 hrs
[3] = MOG-immunized mice, daily i.p. NAD+ from day of immunization
[4] = daily NAD+ and NAD+ from 15 days after MOG immunization
[5] = spleen, EAE mice, daily NAD+ vs placebo, flow cytometry
[6] = nTregs, anti-CD3/CD28, with vs without NAD+

**Q.** How did the IL-4 cytokine production (naïve CD4+ T cells; 96 hrs, ELISA) turn out when `NC(=O)c1ccc[n+]([C@@H]2O[C@H](COP(=O)([O-])OP(=O)(O)OC[C@H]3O[C@@H](n4cnc5c(N)ncnc54)[C@H](O)[C@@H]3O)[C@@H](O)[C@H]2O)c1` [NAD+, nicotinamide adenine dinucleotide] was run?
**A.** Its IL-4 cytokine production is “did not affect”.

**Q.** And the IL-10 cytokine production (naïve CD4+ T cells; 96 hrs, ELISA)?
**A.** Its IL-10 cytokine production is “reduced”.

**Q.** And the IL-13 cytokine production (naïve CD4+ T cells; ELISA)?
**A.** Its IL-13 cytokine production is “did not affect”.

**Q.** And the TNF-α production (naïve CD4+ T cells; ELISA)?
**A.** Its TNF-α production is “inhibited”.

**Q.** What about the “CD4+IL10+ cell frequency” value (naïve CD4+ T cells; flow cytometry) of the same compound?
**A.** The value was “decreased number”.

**Q.** And the “CD4+IL17A+ cells” value (naïve CD4+ T cells; flow cytometry)?
**A.** The value was “increased number”.

**Q.** What about the “CD4+IL-4+ cell frequency” value (naïve CD4+ T cells; flow cytometry) of the same compound?
**A.** The value was “no changes”.

**Q.** And the IL-17A secretion (naïve CD4+ T cells; increasing NAD+, dose dependent, ELISA)?
**A.** The IL-17A secretion was over 2000 pg/mL.

**Q.** What about the “carboxypeptidase A3 (CA3) (microarray)” value ([1]; during CD4+ T helper cell differentiation) of the same compound?
**A.** Its value is “activate”.

**Q.** What about the “Tph-1 expression (qPCR)” value ([1]; with vs without NAD+) of the same compound?
**A.** Its value is “up-regulation”.

**Q.** What about the “spinal cord inflammatory infiltrate, myelin loss and axonal injury (LFB and H&E stainings)” value (EAE in C57BL/6 mice; EAE mice treated daily with NAD+) of the same compound?
**A.** The value was “remained free of inflammatory infiltrate, myelin loss, and axonal injury”.

**Q.** What about the “EAE (behavioral score)” value (EAE in C57BL/6 mice; [3]) of the same compound?
**A.** The value was “protected against EAE”.

**Q.** And the paralysis (EAE in C57BL/6 mice; [3])?
**A.** Its paralysis is “no sign of paralysis”.

**Q.** What about the “spinal cord inflammatory infiltrate, myelin loss and axonal injury (LFB and H&E stainings)” value (EAE in C57BL/6 mice; NAD+ started 15 days after MOG immunization (after hindlimb paralysis)) of the same compound?
**A.** Its value is “did not show inflammatory infiltrate, myelin loss, and axonal injury”.

**Q.** And the “myelination positive area (MBP), spinal cord” value (EAE in C57BL/6 mice; [4])?
**A.** The value was “significant protection and recovery”.

**Q.** And the “neurofilament positive area (NF200), spinal cord” value (EAE in C57BL/6 mice; [4])?
**A.** Its value is “significant protection and recovery”.

**Q.** And the “time of treatment until bilateral hindlimb paresis abolished” value (EAE in C57BL/6 mice; daily NAD+ started 15 days after MOG immunization)?
**A.** The value was at most 10 days.

**Q.** And the “progression of EAE” value (EAE in C57BL/6 mice; daily NAD+ started 15 days after MOG immunization (bilateral hindlimb paresis), vs placebo)?
**A.** The value was “reversed the progression of the disease”.

**Q.** And the “development of EAE” value (EAE in C57BL/6 mice; daily NAD+, after 25 days)?
**A.** Its value is “did not develop EAE”.

**Q.** What about the “systemic IL-10 cytokine production by CD4+IFNγ+ cells” value (EAE in C57BL/6 mice; spleen, EAE mice, daily NAD+ vs control group, flow cytometry) of the same compound?
**A.** Its value is “dramatically enhanced”.

**Q.** What about the “IFNγ production by CD4+ T cells” value (EAE in C57BL/6 mice; [5]) of the same compound?
**A.** The value was “promoted”.

**Q.** What about the Th17 response (EAE in C57BL/6 mice; [5]) of the same compound?
**A.** The Th17 response was “promoted a robust Th17 response”.

**Q.** And the “number of CD4+CD25+Foxp3+ cells” value (EAE in C57BL/6 mice; [5])?
**A.** The value was “reduced”.

**Q.** And the “absolute number of circulating lymphocytes in the blood and spleens” value (C57BL/6 mice)?
**A.** Its value is “did not affect”.

**Q.** What about the “expression of P2RX4 receptor on the cell surface” value ([2]; immunofluorescence, 50 μM NAD) of the same compound?
**A.** Its value is “increased”.

**Q.** And the “expression of P2RX7 receptor on the cell surface” value ([2]; immunofluorescence, 50 μM NAD)?
**A.** Its value is “increased”.

**Q.** What about the “P2RX4 mRNA expression level” value [2, 6] of the same compound?
**A.** The value was over 4 fold.

**Q.** What about the “P2RX7 mRNA expression level” value [2, 6] of the same compound?
**A.** Its value is over 15 fold.

**Q.** And the “P2RY1 mRNA level” value ([2]; nTregs, with vs without NAD+)?
**A.** The value was “remained unchanged”.

**Q.** What about the “P2RY2 mRNA level” value ([2]; nTregs, with vs without NAD+) of the same compound?
**A.** Its value is “remained unchanged”.

**Q.** And the “P2RY4 mRNA level” value ([2]; nTregs, with vs without NAD+)?
**A.** Its value is “remained unchanged”.
